# Test results: patent US20060240037A1, “Methods and compositions for the treatment and prevention of degenerative joint disorders” (priority 2003, published 2006)
# Counter-ions that a name gives are not always drawn.
# Test system: lubricin
# Assay type: cell-based
# Details: lubricin expression; primary human synovial fibroblasts; cells lysed after 48-72 hours; each supplement in 6 wells
# Method: To identify substances having the ability to lubricate synovial joints, we first screened a library of substances for the ability to induce expression and secretion of endogenous lubricin in cultured synovial fibroblasts. A library of nutritional supplements containing 175 natural compounds was made using a natural compound collection. Each supplement was dissolved in water to an approximate concentration of 10 mM. 96-well daughter plates were made and plates were stored at −20° C.
# Human synovial fibroblasts were plated the evening of the first day of the assay and grown overnight. In the morning of day 2, a supplement solution was added to each well of the 96-well plate. Each supplement was tested in 6 different wells to provide enough separate measurements to allow a statistical analysis of the results of the assay. After 48-72 hours, cells were lysed using a non-ionic detergent and supernatants containing cellular extracts were collected. Each supernatant was assayed for lubricin expression using any of the two methods described below.
# We have developed two methods to measure the expression of lubricin, both of which are based on a sandwich assay. In the first sandwich assay, concanavilin A (a lectin) is used to capture lubricin while peanut agglutinin (a lectin) is used to detect proteins secreted by synovial fibroblasts. In contrast, the second assay relies on a rabbit polyclonal antibody for both the capture and detection of lubricin secreted by fibroblasts. In both assays, purified lubricin was used as a calibrator.
# A substance that raised the level of measured lubricin in a significant manner when analyzed by t-test was considered a potentially efficacious substance useful for the present invention. All significant results were repeated in two additional experiments. […] In this regard, the 16 compounds that increased lubricin in the lectin-based assay were the same 16 compounds that increased lubricin levels in the antibody-based assay. […] Compounds that increase lubricin expression in synovial fibroblasts are indicated in Table 1 and the level of increase in lubricin expression is shown in Table 2 and FIG. 2.
# Substances from the nutritional supplement library were screened for their ability to stimulate lubricin expression in primary human synovial fibroblasts. Cells were cultured in the presence or absence of each substance and lubricin expression was measured using the two detection assays discussed below.
# In both assays, the cellular content of synovial cells was extracted as follows. Following the removal of culture media, cells were washed twice with D-PBS. Cells were first incubated in 500 μL of 1% Triton in D-PBS for five minutes and then mechanically disrupted using a pipette to ensure that all cells detach from the plates. The Triton solution containing the cells was transferred to an eppendorf and stored on ice. Samples were sonicated for three seconds and centrifuged for five minutes. The supernatant containing the cellular extracts was transferred to a fresh tube and tested for lubricin expression.
row,Compound,Percent stimulation relative to untreated control Adjusted for background
1,"CSCC[C@H](N)C(=O)O [Compound G66, L-Methionine]",234%
2,"CCCCCCCCCCCCCCCCCCCCCCCCCCCCO [Compound G-5, Octacosanol]",307%
3,"O=c1c(O)c(-c2ccc(O)c(O)c2)oc2cc(O)cc(O)c12 [Compound G-15, Quercetin]",118%
4,"N[C@@H](CS)C(=O)O [Compound G-22, L-Cysteine]",363%
5,"Cc1ncc(C[n+]2csc(CCO)c2C)c(N)n1 [Compound G-27, Thiamin HCl]",267%
6,"CC(C)(CO)[C@@H](O)C(=O)NCCC(=O)O [Compound G-35, Pantothenic Acid]",154%
7,"C[C@]12CCC(=O)C=C1CC[C@@H]1[C@@H]2CC[C@]2(C)C(=O)CC[C@@H]12 [Compound G-57, Androstenedione]",219%
8,Bromelain [Compound G126],75%
